{
  "source": "patent US9855341B2",
  "about": "“Formulations and carrier systems including farnesylthiosalycylic moities” (University of Pittsburgh—Of the Commonwealth System of …, priority 2014, dated 2018)",
  "key": {"[1]": {"text": "Changes in body weight and mouse survival were monitored daily for two weeks. The MTD was defined as the maximal dose that causes neither greater than 15% of body weight loss nor mouse mortality within two weeks after administration. See Lu, J.; Huang, Y.; Zhao, W.; Marquez, R. T.; Meng, X.; Li, J.; Gao, X.; Venkataramanan, R.; Wang, Z.; Li, S., PEG-derivatized embelin as a nanomicellar carrier for delivery of paclitaxel to breast and prostate cancers. Biomaterials, 34, 1591-600 (2013)."}, "[2]": {"conditions": "mouse, in vivo, iv", "procedure": "The blood samples were collected in heparinized tubes at different time points (3 min, 8 min, 15 min, 30 min, 1 h, 2 h, 4 h, 8 h, and 12 h) post-injection. The blood was centrifuged (2,500 rpm, 10 min) and plasma was collected for the analysis. […] Non-compartmental pharmacokinetic analysis was done by WinNonlin. […] At day 1 post-injection, tumor tissues and major organs were collected from the mice. The tissues were weighed and homogenized using Homogenizer PowerGen 500 (Fisher Scientific). […] The solutions were centrifuged (2,500 rpm, 10 min) and the supernatant was used for HPLC measurement."}, "[3]": {"tested_on": "4T1.2 mouse breast cancer cell line", "experiment": "In vitro cytotoxicity, 4T1.2", "format": "cell-based", "conditions": "4T1.2 cells"}, "[4]": {"tested_on": "HCT-116 human colon carcinoma cell line", "experiment": "In vitro cytotoxicity, HCT-116", "format": "cell-based", "conditions": "HCT-116 cells", "text": "Several cancer cell lines were included in the cytotoxicity studies including murine breast cancer cells 4T1.2, human colon carcinoma cell line HCT-116, and two human prostate cancer cell lines PC-3 and DU145. […] A similar result was obtained in human colon cancer cells, HCT-116 as illustrated in FIG. 3B. […] Without limitation to any mechanism, it is likely that FTS is much more readily released from PEG5KFTS2(L) by esterases following intracellular delivery.\nIncorporation of an additional disulfide linkage into PEG5K-FTS2(L) led to further improvement in cytotoxicity. […] Without limitation to any mechanism, this observation may, for example, be a result of enhanced intracellular delivery of FTS via PEG5K-S—S-FTS2(L).\nThe cytotoxicity of drug-free PEG5K-Fmoc-FTS2 and PEG5K-FTS2 micelles was examined in 4T1.2 and HCT-116 tumor cells and compared to free FTS (see FIGS. 12A and 12B, respectively). […] Without limitation to any mechanism, it is likely that the cytotoxicity of PEG-FTS comes from the released FTS following intracellular delivery.\nFIGS. 13A-C show the cytotoxicity of TAXOL and PTX formulated in PEG5K-Fmoc-FTS2 micelles in several cancer cell lines.\nSee Zhang, X.; et al., PEG-farnesylthiosalicylate conjugate as a nanomicellar carrier for delivery of paclitaxel. Bioconjug. Chem., 24, 464-72 (2013). The cytotoxicity of free PEG5K-FTS2, PEG5K-Fmoc-FTS2 and FTS was also examined."}, "[5]": {"tested_on": "PC-3 human prostate cancer cell line", "experiment": "In vitro cytotoxicity, PC-3", "format": "cell-based", "conditions": "PC-3 cells", "text": "FIG. 9B illustrates cytotoxicity of FTS and FTS-amide in a PC-3 human prostate cancer cell line.\nAs described above, FTS and derivatives thereof can be used in the carrier agents hereof. In a number of embodiments (for example, for drug delivery), biologically active derivatives of FTS are used. […] Similar results were obtained in our in vitro cytotoxicity study with HCT-116 and PC-3 cancer cell lines (see FIGS. 9A and 9B)."}, "[6]": {"tested_on": "human prostate cancer xenograft model (PC-3)", "experiment": "NIRF optical imaging biodistribution", "conditions": "PC-3 xenograft, i.v.", "description": "Biodistribution and tumor-targeting efficiency of PEG5K-Fmoc-FTS2 micelles were tested in a human prostate cancer xenograft model (PC-3). DiD, a hydrophobic near infrared fluorescence (NIRF) dye with high penetration, low tissue absorption and scattering was loaded into the PEG5K-Fmoc-FTS2 micelles for tissue imaging. […] After last imaging at 96 h post-injection, tumors and major organs were excised for ex vivo imaging.\nAt indicated times (0.5 h, 6 h, 24 h, 48 h, 72 h and 96 h), the mice were scanned using a Carestream Molecular Imaging System, In vivo Multispectral FX PRO, with the excitation at 630 nm and the emission at 700 nm using a 30 s exposure time. The mice were anesthetized by isoflurane inhalation before each imaging. After 96 h, the mice were euthanized by CO2 overdose. The tumor and major organs were excised for ex vivo imaging."}},
  "data": [
    {"smiles": "COc1cccc2c1C(=O)c1c(O)c3c(c(O)c1C2=O)C[C@@](O)(C(=O)CO)C[C@@H]3O[C@H]1C[C@H](N)[C@H](O)[C@H](C)O1", "note": "[DOX, doxorubicin]", "values": [
      {"measurement": "decrease in the body weight", "setting": "[1]; 15 mg DOX/kg", "value": "> 15", "unit": "%"},
      {"measurement": "mortality", "setting": "[1]; 15 mg DOX/kg", "value": "death of all treated mice"},
      {"measurement": "tolerability", "setting": "[1]; dose of 10 mg/kg (DOX)", "value": "well tolerated"},
      {"measurement": "Vd", "setting": "[2]", "value": 7.34, "unit": "L/kg"}
    ]},
    {"smiles": "CC(C)=CCC/C(C)=C/CC/C(C)=C/CSc1ccccc1C(=O)O", "note": "[FTS, S-trans, trans-farnesylthiosalicylic acid]", "values": [
      {"measurement": "cytotoxicity (tumor cell growth inhibition)", "setting": "[3]", "value": "inhibited the tumor cell growth in a concentration-dependent manner"},
      {"measurement": "cytotoxicity (tumor cell growth inhibition)", "setting": "[4]", "value": "inhibited the tumor cell growth in a concentration-dependent manner"}
    ]},
    {"smiles": "CC(C)=CCC/C(C)=C/CC/C(C)=C/CSc1ccccc1C(N)=O", "note": "[FTS-amide, S-trans, trans-farnesylthiosalicylic acid amide]", "values": [
      {"measurement": "cytotoxicity (tumor cell growth inhibition)", "setting": "[4]", "value": "more effective than the parent compound in inhibiting the tumor cell growth"},
      {"measurement": "cytotoxicity (tumor cell growth inhibition)", "setting": "[5]", "value": "more effective than the parent compound in inhibiting the tumor cell growth"}
    ]},
    {"smiles": "CCCCCCCCCCCCCCCCCCN1C(=CC=CC=CC2=[N+](CCCCCCCCCCCCCCCCCC)c3ccccc3C2(C)C)C(C)(C)c2ccccc21.[O-][Cl+3]([O-])([O-])[O-]", "note": "[free DiD, 1,1′-dioctadecyl-3,3,3′,3′-tetramethylindodicarbocyanine perchlorate]", "values": [
      {"measurement": "tumor accumulation (NIRF imaging)", "setting": "[6]", "value": "No obvious tumor accumulation"}
    ]}
  ]
}
